# From patent US20100204203A1, “Chemical Compounds 637: Pyridopyrimidinediones as PDE4 Inhibitors” (priority 2007, published 2010)
# Target: recombinant Human Phosphodiesterase B2 (PDE4B2) (Homo sapiens, UniProt Q07343)
# Assay: Human Phosphodiesterase B2 Radiometric Assay (yttrium silicate SPA beads, [3H]cyclic AMP)
# Assay type: biochemical
# Conditions: recombinant human PDE4B2, radiometric SPA assay, 8 nM [3H]cyclic AMP; read-out: PDE4B2 pIC50 (converted)
# Summary of the method: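 Read-out is scintillation proximity: yttrium silicate beads (with 18 mM ZnSO4, added to stop the reaction) bind 5′AMP formed from 8 nM [3H]cAMP over 20 min. Beforehand, compound and 0.1 mg/mL enzyme were preincubated 30 min at 30 °C in pH 7.5 HEPES buffer with MgCl2, EGTA and Brij 35; pIC50 values were curve-fitted.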
# recombinant Human Phosphodiesterase B2 (PDE4B2), sequence (Q07343 1-564 isoform Q07343-2): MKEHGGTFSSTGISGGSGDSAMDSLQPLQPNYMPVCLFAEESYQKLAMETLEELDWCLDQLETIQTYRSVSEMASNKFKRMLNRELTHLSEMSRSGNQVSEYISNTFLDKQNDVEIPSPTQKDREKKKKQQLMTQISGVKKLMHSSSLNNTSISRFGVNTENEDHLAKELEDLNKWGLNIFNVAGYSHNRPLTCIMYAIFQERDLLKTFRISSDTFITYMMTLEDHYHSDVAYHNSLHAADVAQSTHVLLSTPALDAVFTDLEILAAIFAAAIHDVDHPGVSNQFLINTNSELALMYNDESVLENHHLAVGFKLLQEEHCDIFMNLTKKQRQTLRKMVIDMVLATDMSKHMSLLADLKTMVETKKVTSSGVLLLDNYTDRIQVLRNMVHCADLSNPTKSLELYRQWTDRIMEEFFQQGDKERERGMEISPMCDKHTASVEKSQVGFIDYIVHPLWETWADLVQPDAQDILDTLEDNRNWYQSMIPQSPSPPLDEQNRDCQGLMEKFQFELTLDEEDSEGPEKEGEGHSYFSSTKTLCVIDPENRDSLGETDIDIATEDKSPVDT
row,SMILES,IC50
1,"C[N+](C)(C)Cc1ccc(-c2cccc(-n3c(=O)n([C@H]4CC[C@@H](NC(=O)c5cn6cc(F)ccc6n5)CC4)c(=O)c4cc(F)cnc43)c2)cc1 [Example 87, {3-[6-fluoro-3-(cis-4-{[(6-fluoroimidazo[1,2-a]pyridin-2-yl)carbonyl]amino}cyclohexyl)-2,4-dioxo-3,4-dihydropyrido[2,3-a]pyrimidin-1(2H)-yl]biphenyl-4-yl]-N,N,N-trimethylmethanaminium iodide]",0.316 nM
2,"N[C@H]1CC[C@@H](n2c(=O)c3cc(F)cnc3n(-c3cccc(-c4ccccc4CN4CCOCC4)c3)c2=O)CC1 [Example 46, 3-(cis-4-aminocyclohexyl)-6-fluoro-1-[2′-(morpholin-4-ylmethyl)biphenyl-3-yl]pyrido[2,3-d]pyrimidine-2,4(1H,3H)-dione]",2 nM
3,"O=C(N[C@H]1CC[C@@H](n2c(=O)c3cc(F)cnc3n(-c3cccc(-c4ccc(C(F)(F)F)cc4)c3)c2=O)CC1)c1cn2cc(F)ccc2n1 [Example 29, 6-fluoro-N-{cis-4-[6-fluoro-2,4-dioxo-1-[4′-(trifluoromethyl)biphenyl-3-yl]-1,4-dihydropyrido[2,3-d]pyrimidin-3(2H)-yl]cyclohexyl}imidazo[1,2-a]pyridine-2-carboxamide.]",0.0794 nM
4,"CN(C)Cc1ccccc1-c1cccc(-n2c(=O)n([C@H]3CC[C@@H](NC(=O)c4cn5cc(F)ccc5n4)CC3)c(=O)c3cc(F)cnc32)c1 [Example 33, N-{cis-4-[1-{2′-[(dimethylamino)methyl]biphenyl-3-yl}-6-fluoro-2,4-dioxo-1,4-dihydropyrido[2,3-d]pyrimidin-3(2H)-yl]cyclohexyl}-6-fluoroimidazo[1,2-c]pyridine-2-carboxamide.]",0.01 nM
5,"CC(=O)N[C@H]1CC[C@@H](n2c(=O)c3cc(F)cnc3n(-c3cccc(-c4ccccc4CN4CCOCC4)c3)c2=O)CC1 [Example 62, N-{cis-4-[6-fluoro-1-[2′-(morpholin-4-ylmethyl)biphenyl-3-yl]-2,4-dioxo-1,4-dihydropyrido[2,3-d]pyrimidin-3(2H)-yl]cyclohexyl}acetamide]",0.316 nM
6,Cc1cc(C(=O)N[C@H]2CC[C@@H](n3c(=O)c4cc(F)cnc4n(-c4cccc(-c5ccc(CN6CCN(CC(=O)N(C)C)CC6)cc5)c4)c3=O)CC2)nn1C [Example 216],0.0126 nM
7,"O=C(N[C@H]1CC[C@@H](n2c(=O)c3cc(F)cnc3n(-c3cccc(Sc4ccccc4)c3)c2=O)CC1)c1cn2cc(F)ccc2n1 [Example 44, 6-fluoro-N-{cis-4-[6-fluoro-2,4-dioxo-1-[3-(phenylthio)phenyl]-1,4-dihydropyrido[2,3-d]pyrimidin-3(2H)-yl]cyclohexyl}imidazo[1,2-a]pyridine-2-carboxamide]",0.0631 nM
8,"O=C(N[C@H]1CC[C@@H](n2c(=O)c3cc(F)cnc3n(-c3ccc4c(cnn4Cc4ccccc4)c3)c2=O)CC1)c1cn2ccccc2n1 [Example 35, N-{cis-4-[1-(1-benzyl-1H-indazol-5-yl)-6-fluoro-2,4-dioxo-1,4-dihydropyrido[2,3-d]pyrimidin-3(2H)-yl]cyclohexyl}imidazo[1,2-a]pyridine-2-carboxamide]",6.31 nM
9,"CN(C)C1(C(=O)N[C@H]2CC[C@@H](n3c(=O)c4cc(F)cnc4n(-c4cccc(-c5ccc(CN6CCN(CC(=O)N7CCOCC7)CC6)cc5)c4)c3=O)CC2)CC1 [Example 212, 1-(dimethylamino)-N-{cis-4-[6-fluoro-1-(4′-{[4-(2-morpholin-4-yl-2-oxoethyl)piperazin-1-yl]methyl}biphenyl-3-yl)-2,4-dioxo-1,4-dihydropyrido[2,3-d]pyrimidin-3(2H)-yl]cyclohexyl} cyclopropanecarboxamide]",0.0126 nM
10,"CN(C)C1(C(=O)N[C@H]2CC[C@@H](n3c(=O)c4cc(F)cnc4n(-c4cccc(-c5ccc(CN6CCCCC6)cc5)c4)c3=O)CC2)CC1 [Example 125, 1-(dimethylamino)-N-{cis-4-[6-fluoro-2,4-dioxo-1-[4′-(piperidin-1-ylmethyl)biphenyl-3-yl]-1,4-dihydropyrido[2,3-d]pyrimidin-3(2H)-yl]cyclohexyl}cyclopropane-carboxamide]",0.158 nM
11,C[C@H](CO)NCc1ccc(-c2cccc(-n3c(=O)n([C@H]4CC[C@@H](NC(=O)c5cn6cc(F)ccc6n5)CC4)c(=O)c4cc(F)cnc43)c2)cc1 [Example 59],0.158 nM
12,"O=C(N[C@H]1CC[C@@H](n2c(=O)c3cc(F)cnc3n(-c3cccc(-c4ccc(CN5CCNCC5)cc4)c3)c2=O)CC1)c1cn2cc(F)ccc2n1 [Example 54, 6-fluoro-N-{cis-4-[6-fluoro-2,4-dioxo-1-[4′-(piperazin-1-ylmethyl)biphenyl-3-yl]-1,4-dihydropyrido[2,3-d]pyrimidin-3(2H)-yl]cyclohexyl}imidazo[1,2-a]pyridine-2-carboxamide]",0.0158 nM
13,"CNCCOc1ccc(-c2cccc(-n3c(=O)n([C@H]4CC[C@@H](NC(=O)c5cn6cc(F)ccc6n5)CC4)c(=O)c4cc(F)cnc43)c2)cc1 [Example 77, 6-fluoro-N-{cis-4-[6-fluoro-1-{4′-[2-(methylamino)ethoxy]biphenyl-3-yl}-2,4-dioxo-1,4-dihydropyrido[2,3-d]pyrimidin-3(2H)-yl]cyclohexyl}imidazo[1,2-c]pyridine-2-carboxamide]",0.0251 nM

# Now from value to molecule:
row,IC50,SMILES
1,0.01 nM,"O=C(N[C@H]1CC[C@@H](n2c(=O)c3cc(F)cnc3n(-c3cccc(-c4ccc(CN5CCCOCC5)cc4)c3)c2=O)CC1)c1cn2c(n1)CCCC2 [Example 224, N-{cis-4-[6-fluoro-1-[4′-(1,4-oxazepan-4-ylmethyl)biphenyl-3-yl]-2,4-dioxo-1,4-dihydropyrido[2,3-d]pyrimidin-3(2H)-yl]cyclohexyl}-5,6,7,8-tetrahydroimidazo[1,2-a]pyridine-2-carboxamide]"
2,0.01 nM,"CC(=O)N1CCN(Cc2cc(O)ccc2-c2cccc(-n3c(=O)n([C@H]4CC[C@@H](NCc5cn6cc(F)ccc6n5)CC4)c(=O)c4cc(F)cnc43)c2)CC1 [Example 328, 1-{2′-[(4-acetylpiperazin-1-yl)methyl]-4′-hydroxybiphenyl-3-yl}-6-fluoro-3-(cis-4-{[(6-fluoroimidazo[1,2-a]pyridin-2-yl)methyl]amino}cyclohexyl)pyrido [2,3-d]pyrimidine-2,4(1H,3H)-dione]"
3,0.00501 nM,"CC(C)NC(=O)CN1CCN(Cc2ccc(-c3cccc(-n4c(=O)n([C@H]5CC[C@@H](NC(=O)c6cn7c(n6)CCCC7)CC5)c(=O)c5cc(F)cnc54)c3)cc2)CC1 [Example 219, N-{cis-4-[6-fluoro-1-[4′-({4-[2-(isopropylamino)-2-oxoethyl]piperazin-1-yl}methyl)biphenyl-3-yl]-2,4-dioxo-1,4-dihydropyrido[2,3-d]pyrimidin-3(2H)-yl]cyclohexyl}-5,6,7,8-tetrahydroimidazo[1,2-a]pyridine-2-carboxamide]"
4,0.0316 nM,"CN1CCCN(Cc2ccc(-c3cccc(-n4c(=O)n([C@H]5CC[C@@H](NC(=O)CN6CCCCC6)CC5)c(=O)c5cc(F)cnc54)c3)cc2)CC1 [Example 292, N-{cis-4-[6-fluoro-1-{4′-[(4-methyl-1,4-diazepan-1-yl)methyl]biphenyl-3-yl}-2,4-dioxo-1,4-dihydropyrido[2,3-d]pyrimidin-3(2H)-yl]cyclohexyl}-2-piperidin-1-ylacetamide]"
5,0.0158 nM,"O=c1c2cc(F)cnc2n(-c2cccc(-c3ccc(O)cc3CN3CCSCC3)c2)c(=O)n1[C@H]1CC[C@@H](NCc2cn3cc(F)ccc3n2)CC1 [Example 253, 6-Fluoro-3-(cis-4-{[(6-fluoroimidazo[1,2-c]pyridin-2-yl)methyl]amino}cyclohexyl)-1-[4′-hydroxy-2′-(thiomorpholin-4-ylmethyl)biphenyl-3-yl]pyrido[2,3-d]pyrimidine-2,4(1H,3H)-dione]"
6,1.58 nM,"CCN(CC)CCOc1ccc(CN(C(C)=O)[C@H]2CC[C@@H](n3c(=O)c4cc(F)cnc4n(-c4cccc(-c5ccc(CN6CCN(C(C)C)CC6)cc5)c4)c3=O)CC2)cc1 [Example 340, N-{4-[2-(diethylamino)ethoxy]benzyl}-N-{cis-4-[6-fluoro-1-{4′-[(4-isopropylpiperazin-1-yl)methyl]biphenyl-3-yl}-2,4-dioxo-1,4-dihydropyrido[2,3-d]pyrimidin-3 (2H)-yl]cyclohexyl}acetamide]"
7,0.126 nM,CNCCNCc1ccc(-c2cc(C)cc(-n3c(=O)n([C@H]4CC[C@@H](NC(=O)c5cn6cc(F)ccc6n5)CC4)c(=O)c4cc(F)cnc43)c2)cc1 [Example 231]
8,6.31 nM,"N[C@H]1CC[C@@H](n2c(=O)c3cc(F)cnc3n(-c3cccc(-c4ccc(O)cc4CN4CCNC(=O)CC4)c3)c2=O)CC1 [Example 369, 3-(cis-4-aminocyclohexyl)-6-fluoro-1-{4′-hydroxy-2′-[(5-oxo-1,4-diazepan-1-yl)methyl]biphenyl-3-yl}pyrido[2,3-d]pyrimidine-2,4(1H,3H)-dione]"
9,3.98 nM,"CCCNC1(C(=O)N[C@H]2CC[C@@H](n3c(=O)c4cc(F)cnc4n(-c4cccc(-c5ccccc5CN5CCOCC5)c4)c3=O)CC2)CCCC1 [Example 275, N-{cis-4-[6-Fluoro-1-[2′-(morpholin-4-ylmethyl)biphenyl-3-yl]-2,4-dioxo-1,4-dihydropyrido[2,3-d]pyrimidin-3(2H)-yl]cyclohexyl}-1-(propylamino)cyclopentanecarboxamide]"
10,0.0501 nM,"O=C(N[C@H]1CC[C@@H](n2c(=O)c3cc(F)cnc3n(-c3cccc(-c4ccc(CN5CCC[C@H]5CO)cc4)c3)c2=O)CC1)c1cn2c(n1)CCCC2 [Example 226, N-{cis-4-[6-fluoro-1-(4′-{[(2S)-2-(hydroxymethyl)pyrrolidin-1-yl]methyl}biphenyl-3-yl)-2,4-dioxo-1,4-dihydropyrido[2,3-d]pyrimidin-3(2H)-yl]cyclohexyl}-5,6,7,8-tetrahydroimidazo[1,2-a]pyridine-2-carboxamide]"
